Measured values from PMC6332232 (Molecules, 2015).

Assays:
[1] = Enzyme kinetics of 4(S)-hydroxyevogliptin glucuronidation in pooled human liver microsomes; type: in vitro ADME
Procedure: Therefore, a 20 min incubation time and 0.2 mg/mL microsomal protein concentration were selected for enzyme kinetics experiments. The reaction mixture comprised 50 mM Tris buffer (pH 7.4), 10 mM magnesium chloride, 0.025 mg/mL alamethicin, pooled human liver microsomes (20 μg protein), and various concentrations of 4(S)-hydroxyevogliptin (M2) (10 to 2,000 μM; final acetonitrile concentration not exceeding 0.5%, v/v), and was preincubated for 3 min at 37 °C. The reaction was initiated by adding UDPGA, and the mixture was further incubated (final volume of 100 μL) for 20 min at 37 °C in a shaking water bath. The reaction was stopped by adding 100 μL of MPPI (internal standard, 50 ng/mL) in ice-cold acetonitrile. The mixture was centrifuged at 13,000 rpm for 4 min at 4 °C. […]
Results represent the average of three independent experiments using human liver microsomes and human cDNA-expressed CYP and UGT enzymes. The kinetic parameters (Km and Vmax) for hydroxylation and glucuronidation were determined using the Michaelis-Menten equation [V = Vmax·S/(Km + S)], the Hill equation [V = Vmax·S^n/(Km^n + S^n)], or the isoenzyme equation [V = Vmax1·(S/Km1)/(1 + S/Km1) + Vmax2·(S/Km2)/(1 + S/Km2)] with the Enzyme Kinetics software (version 1.3; Systat Software Inc.). […] The intrinsic clearance (Clint) was calculated as Vmax/Km.

[2] = Enzyme kinetics of evogliptin hydroxylation in pooled human liver microsomes; type: in vitro ADME; settings: single-enzyme kinetics; for Km at 20 min: human, pH 7.4, Km
Procedure: Thus, a 20 min incubation time and 0.15 mg/mL microsomal protein concentration were used in subsequent experiments. […] The mixture was centrifuged at 13,000 rpm for 4 min at 4 °C. Subsequently, 50 μL of the supernatant were diluted with 50 μL of deionized water and an aliquot (5 μL) was injected onto the LC-MS/MS system. Results represent the average of three independent experiments using human liver microsomes and human cDNA-expressed CYP and UGT enzymes. […] Systat Software Inc.). In the above-mentioned equations, V was the velocity of the reaction at substrate concentration [S], Vmax was the maximum velocity, Km was the substrate concentration at which the V was half of Vmax, and n is the Hill constant. The intrinsic clearance (Clint) was calculated as Vmax/Km.

not read = substrate: CC(C)(C)OC[C@@H]1C(=O)NCCN1C(=O)C[C@H](N)Cc1cc(F)c(F)cc1F; assay: not read; settings: other: CYP3A5, single-enzyme kinetics; pH 7.4; 37.0 °C
[3] = substrate: CC(C)(C)OC[C@@H]1C(=O)NCCN1C(=O)C[C@H](N)[C@@H](O)c1cc(F)c(F)cc1F; assay: Enzyme kinetics of 4(S)-hydroxyevogliptin glucuronidation in human cDNA-expressed UGT2B7; type: in vitro ADME; settings: other: UGT2B7, Hill equation kinetics; pH 7.4; 37.0 °C
Procedure: (§1) For the enzyme kinetic study, various concentrations of 4(S)-hydroxyevogliptin (M2) (25 to 2000 μM; final acetonitrile concentration not exceeding 0.5%, v/v) were incubated with human cDNA-expressed UGT2B4 or UGT2B7 enzymes (20 μg protein), 2 mM UDPGA, 0.025 mg/mL alamethicin, and 10 mM magnesium chloride in 50 mM Tris buffer (pH 7.4) for 20 min at 37 °C in a shaking water bath. After adding ice-cold acetonitrile containing internal standard (MPPI, 50 ng/mL), the mixture was centrifuged and diluted as described above, and an aliquot (5 μL) was analyzed using the LC-MS/MS system.
(§2) Results represent the average of three independent experiments using human liver microsomes and human cDNA-expressed CYP and UGT enzymes. The kinetic parameters (Km and Vmax) for hydroxylation and glucuronidation were determined using the Michaelis-Menten equation [V = Vmax·S/(Km + S)], the Hill equation [V = Vmax·S^n/(Km^n + S^n)], or the isoenzyme equation [V = Vmax1·(S/Km1)/(1 + S/Km1) + Vmax2·(S/Km2)/(1 + S/Km2)] with the Enzyme Kinetics software (version 1.3; Systat Software Inc.). In the above-mentioned equations, V was the velocity of the reaction at substrate concentration [S], Vmax was the maximum velocity, Km was the substrate concentration at which the V was half of Vmax, and n is the Hill constant. The intrinsic clearance (Clint) was calculated as Vmax/Km.

[4] = substrate: CC(C)(C)OC[C@@H]1C(=O)NCCN1C(=O)C[C@H](N)[C@@H](O)c1cc(F)c(F)cc1F; assay: Enzyme kinetics of 4(S)-hydroxyevogliptin glucuronidation in human cDNA-expressed UGT2B4; type: in vitro ADME; settings: other: UGT2B4, single-enzyme kinetics; pH 7.4; 37.0 °C
Procedure: as §1, §2

## CC(C)(C)OC[C@@H]1C(=O)NCCN1C(=O)C[C@H](N)[C@@H](O)c1cc(F)c(F)cc1F [4(S)-hydroxyevogliptin]
[1]; Hill equation
  Vmax, formation of 4(S)-hydroxyevogliptin glucuronide (M4): 711.4 pmol/mg protein/min
[1]; pH 7.4, Hill equation
  Km at 20 min: 928 µM

## CC(C)(C)OC[C@@H]1C(=O)NCCN1C(=O)C[C@H](N)Cc1cc(F)c(F)cc1F [evogliptin, (R)-4-((R)-3-amino-4-(2,4,5-trifluorophenyl)butanoyl)-3-(tert-butoxymethyl)-piperazin-2-one]
[2]; formation of 4(R)-hydroxyevogliptin (M3)
  Km at 20 min: 124 µM
[2]; formation of 4(S)-hydroxyevogliptin (M2)
  Km at 20 min: 93.4 µM
[2]
  Vmax, formation of 4(R)-hydroxyevogliptin (M3): 113.0 pmol/min/mg protein
  Vmax, formation of 4(S)-hydroxyevogliptin (M2): 91.9 pmol/min/mg protein

B1: CYP3A5 (Homo sapiens) (protein)
chain: MDLIPNLAVETWLLLAVSLVLLYLYGTRTHGLFKRLGIPGPTPLPLLGNVLSYRQGLWKFDTECYKKYGKMWGTYEGQLPVLAITDPDVIRTVLVKECYSVFTNRRSLGPVGFMKSAISLAEDEEWKRIRSLLSPTFTSGKLKEMFPIIAQYGDVLVRNLRREAEKGKPVTLKDIFGAYSMDVITGTSFGVNIDSLNNPQDPFVESTKKFLKFGFLDPLFLSIILFPFLTPVFEALNVSLFPKDTINFLSKSVNRMKKSRLNDKQKHRLDFLQLMIDSQNSKETESHKALSDLELAAQSIIFIFAGYETTSSVLSFTLYELATHPDVQQKLQKEIDAVLPNKAPPTYDAVVQMEYLDMVVNETLRLFPVAIRLERTCKKDVEINGVFIPKGSMVVIPTYALHHDPKYWTEPEEFRPERFSKKKDSIDPYIYTPFGTGPRNCIGMRFALMNMKLALIRVLQNFSFKPCKETQIPLKLDTQGLLQPEKPIVLKVDSRDGTLSGE
Not read
  kcat: 19.5 pmol/min/pmol CYP

B2: UGT2B7 (Homo sapiens) (protein)
chain: GKVLVWAAEYSHWMNIKTILDELIQRGHEVTVLASSASILFDPNNSSALKIEIYPTSLTKTELENFIMQQIKRWSDLPKDTFWLYFSQVQEIMSIFGDITRKFCKDVVSNKKFMKKVQESRFDVIFADAIFPCSELLAELFNIPFVYSLSFSPGYTFEKHSGGFIFPPSYVPVVMSELTDQMTFMERVKNMIYVLYFDFWFEIFDMKKWDQFYSEVLGRPTTLSETMGKADVWLIRNSWNFQFPYPLLPNVDFVGGLHCKPAKPLPKEMEDFVQSSGENGVVVFSLGSMVSNMTEERANVIASALAQIPQKVLWRFDGNKPDTLGLNTRLYKWIPQNDLLGHPKTRAFITHGGANGIYEAIYHGIPMVGIPLFADQPDNIAHMKARGAAVRVDFNTMSSTDLLNALKRVINDPSYKENVMKLSRIQHDQPVKPLDRAVFWIEFVMRHKGAKHLRVAAHDLTWFQYHSLDVIGFLLVCVATVIFIVTKCCLFCFWKFARKAKKGKND
notes: purchased Corning Life Sciences (Woburn, MA, USA)
[3]
  Km: 1003.8 µM

B3: UGT2B4 (Homo sapiens) (protein)
chain: GKVLVWPTEFSHWMNIKTILDELVQRGHEVTVLASSASISFDPNSPSTLKFEVYPVSLTKTEFEDIIKQLVKRWAELPKDTFWSYFSQVQEIMWTFNDILRKFCKDIVSNKKLMKKLQESRFDVVLADAVFPFGELLAELLKIPFVYSLRFSPGYAIEKHSGGLLFPPSYVPVVMSELSDQMTFIERVKNMIYVLYFEFWFQIFDMKKWDQFYSEVLGRPTTLSETMAKADIWLIRNYWDFQFPHPLLPNVEFVGGLHCKPAKPLPKEMEEFVQSSGENGVVVFSLGSMVSNTSEERANVIASALAKIPQKVLWRFDGNKPDTLGLNTRLYKWIPQNDLLGHPKTRAFITHGGANGIYEAIYHGIPMVGVPLFADQPDNIAHMKAKGAAVSLDFHTMSSTDLLNALKTVINDPLYKENAMKLSRIHHDQPVKPLDRAVFWIEFVMRHKGAKHLRVAAHDLTWFQYHSLDVTGFLLACVATVIFIITKCLFCVWKFVRTGKKGKRD
notes: purchased Corning Life Sciences
[4]
  Km: 1,328 μM
